Assay results reported in ChEMBL document CHEMBL1909046, “DrugMatrix in vitro pharmacology data”.

Legend:
[1] = molecular target: 5-hydroxytryptamine receptor 4 (Cavia porcellus, UniProt O70528); format: cell membranes, Dunkin-Hartley, Striatum, Membrane; further: in other assays of this panel Not Active means under 50% inhibition at 10 µM
Estrogen receptor beta = Estrogen receptor beta (Homo sapiens, UniProt Q92731); conditions: sf9; further: in other assays of this panel Not Active means under 50% inhibition at 10 µM
Chain of Estrogen receptor beta (Q92731 whole entry): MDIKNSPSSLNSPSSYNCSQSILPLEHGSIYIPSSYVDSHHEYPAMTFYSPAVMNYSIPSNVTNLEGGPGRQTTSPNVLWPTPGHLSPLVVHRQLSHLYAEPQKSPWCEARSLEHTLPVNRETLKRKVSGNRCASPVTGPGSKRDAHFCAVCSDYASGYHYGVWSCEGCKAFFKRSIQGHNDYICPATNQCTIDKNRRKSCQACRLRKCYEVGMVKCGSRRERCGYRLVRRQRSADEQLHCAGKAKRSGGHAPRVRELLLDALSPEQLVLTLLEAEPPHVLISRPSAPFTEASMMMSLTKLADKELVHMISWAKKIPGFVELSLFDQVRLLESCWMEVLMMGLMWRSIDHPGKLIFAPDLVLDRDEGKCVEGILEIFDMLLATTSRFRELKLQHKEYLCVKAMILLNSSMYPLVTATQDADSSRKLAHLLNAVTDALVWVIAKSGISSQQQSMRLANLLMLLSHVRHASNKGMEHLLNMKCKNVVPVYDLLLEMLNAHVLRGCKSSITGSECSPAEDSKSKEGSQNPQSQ

Glycine receptor = Glycine receptor (Rattus norvegicus, UniProt P22771+P24524+P07727+P20781); format: cell membranes, Wistar, Spinal cord, Membrane; further: in other assays of this panel Not Active means under 50% inhibition at 10 µM
[2] = molecular target: T1, C-X-C chemokine receptor type 1 (Homo sapiens, UniProt P25024); further: in other assays of this panel Not Active means under 50% inhibition at 10 µM
T1 sequence (P25024 whole entry): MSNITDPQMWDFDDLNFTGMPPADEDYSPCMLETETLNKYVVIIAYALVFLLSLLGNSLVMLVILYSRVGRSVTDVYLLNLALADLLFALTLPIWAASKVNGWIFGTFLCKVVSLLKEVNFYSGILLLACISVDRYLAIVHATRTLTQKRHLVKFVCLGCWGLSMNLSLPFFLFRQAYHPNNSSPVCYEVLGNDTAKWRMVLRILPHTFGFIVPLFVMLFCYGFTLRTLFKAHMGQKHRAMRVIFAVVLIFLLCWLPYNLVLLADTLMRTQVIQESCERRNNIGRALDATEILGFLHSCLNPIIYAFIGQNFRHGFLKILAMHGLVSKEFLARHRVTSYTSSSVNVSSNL

[3] = molecular target: T2, C-C chemokine receptor type 4 (Homo sapiens, UniProt P51679); format: cell membranes, Chem-1, Membrane; conditions: chem-1; further: in other assays of this panel Not Active means under 50% inhibition at 10 µM
T2 sequence (P51679 whole entry): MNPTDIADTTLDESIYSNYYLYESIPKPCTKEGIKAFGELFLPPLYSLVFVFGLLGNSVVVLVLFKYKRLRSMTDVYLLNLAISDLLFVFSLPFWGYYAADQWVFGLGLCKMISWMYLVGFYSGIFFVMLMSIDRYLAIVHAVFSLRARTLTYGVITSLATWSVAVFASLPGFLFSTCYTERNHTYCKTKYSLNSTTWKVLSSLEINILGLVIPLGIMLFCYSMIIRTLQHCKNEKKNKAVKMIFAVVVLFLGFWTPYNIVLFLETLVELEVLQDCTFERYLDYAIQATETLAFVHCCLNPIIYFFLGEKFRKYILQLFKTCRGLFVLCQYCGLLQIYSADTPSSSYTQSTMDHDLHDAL

Vasopressin V1a receptor = Vasopressin V1a receptor (Homo sapiens, UniProt P37288); format: cell membranes, Membrane; conditions: hek293; further: in other assays of this panel Not Active means under 50% inhibition at 10 µM
Chain of Vasopressin V1a receptor (P37288 whole entry): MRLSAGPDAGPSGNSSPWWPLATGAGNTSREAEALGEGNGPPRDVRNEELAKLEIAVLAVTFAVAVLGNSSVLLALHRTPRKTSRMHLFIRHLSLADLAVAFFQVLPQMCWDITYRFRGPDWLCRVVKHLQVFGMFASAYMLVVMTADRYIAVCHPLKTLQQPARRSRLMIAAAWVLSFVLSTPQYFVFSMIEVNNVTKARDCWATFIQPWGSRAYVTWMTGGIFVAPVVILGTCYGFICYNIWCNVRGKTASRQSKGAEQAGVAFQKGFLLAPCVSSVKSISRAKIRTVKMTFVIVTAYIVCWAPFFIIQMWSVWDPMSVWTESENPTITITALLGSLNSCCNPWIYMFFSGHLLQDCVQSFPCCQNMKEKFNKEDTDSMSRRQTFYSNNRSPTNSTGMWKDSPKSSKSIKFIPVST

[4] = molecular target: T3, Alpha-1B adrenergic receptor (Rattus norvegicus, UniProt P15823); test: DRUGMATRIX: Alpha-1B adrenergic receptor radioligand binding (ligand: prazosin); format: cell membranes, Wistar, Liver, Membrane; conditions: Not Active = under 50% inhibition at 10 µM
T3 sequence (P15823 whole entry): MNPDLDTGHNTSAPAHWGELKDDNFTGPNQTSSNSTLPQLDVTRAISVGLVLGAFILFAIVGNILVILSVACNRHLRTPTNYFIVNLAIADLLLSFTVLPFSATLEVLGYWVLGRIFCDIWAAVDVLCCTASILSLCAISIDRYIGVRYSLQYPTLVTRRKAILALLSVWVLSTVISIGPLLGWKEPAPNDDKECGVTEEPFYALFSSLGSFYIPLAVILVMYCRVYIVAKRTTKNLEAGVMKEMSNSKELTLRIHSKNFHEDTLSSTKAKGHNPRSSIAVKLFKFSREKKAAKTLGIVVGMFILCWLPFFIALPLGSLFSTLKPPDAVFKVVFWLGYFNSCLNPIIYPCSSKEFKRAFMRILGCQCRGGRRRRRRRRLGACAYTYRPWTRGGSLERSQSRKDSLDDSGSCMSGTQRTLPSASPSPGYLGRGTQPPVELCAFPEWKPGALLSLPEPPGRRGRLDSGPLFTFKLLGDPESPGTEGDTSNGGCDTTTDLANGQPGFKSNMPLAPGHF

Chain of 5-hydroxytryptamine receptor 4 (O70528 whole entry): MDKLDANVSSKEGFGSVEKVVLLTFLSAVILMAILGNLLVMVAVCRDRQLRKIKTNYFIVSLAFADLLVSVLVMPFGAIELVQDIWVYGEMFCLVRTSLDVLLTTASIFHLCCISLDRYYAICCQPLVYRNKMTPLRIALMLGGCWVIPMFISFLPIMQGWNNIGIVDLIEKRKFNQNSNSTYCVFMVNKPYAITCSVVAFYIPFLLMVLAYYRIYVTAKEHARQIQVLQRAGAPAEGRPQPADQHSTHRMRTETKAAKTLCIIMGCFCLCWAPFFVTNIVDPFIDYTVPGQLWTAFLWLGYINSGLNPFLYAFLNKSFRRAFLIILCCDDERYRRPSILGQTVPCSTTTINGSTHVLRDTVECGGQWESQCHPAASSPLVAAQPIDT

COc1cc(/C=C/C(=O)O)ccc1O [FERULATE]
Not Active: IC50 [1] | IC50 (Estrogen receptor beta) | IC50 (Glycine receptor) | IC50 [2] | IC50 [3] | IC50 (Vasopressin V1a receptor) | IC50 [4]

CC(C)(C#N)c1cc(Cn2cncn2)cc(C(C)(C)C#N)c1 [ANASTROZOLE]
Not Active: IC50 [1] | IC50 (Estrogen receptor beta) | IC50 (Glycine receptor) | IC50 [2] | IC50 [3] | IC50 (Vasopressin V1a receptor) | IC50 [4]

COc1ccc(Cl)cc1C(=O)NCCc1ccc(S(=O)(=O)NC(=O)NC2CCCCC2)cc1 [GLYBURIDE]
Not Active: IC50 [1] | IC50 (Estrogen receptor beta) | IC50 (Glycine receptor) | IC50 [2] | IC50 [3] | IC50 (Vasopressin V1a receptor) | IC50 [4]

O=C(O)COC(=O)Cc1ccccc1Nc1c(Cl)cccc1Cl [ACECLOFENAC]
Not Active: IC50 [1] | IC50 (Estrogen receptor beta) | IC50 (Glycine receptor) | IC50 [2] | IC50 [3] | IC50 (Vasopressin V1a receptor) | IC50 [4]

Cl.NC[C@H]1CC[C@H](C(=O)Oc2ccc(CCC(=O)O)cc2)CC1 [CETRAXATE HYDROCHLORIDE]
Not Active: IC50 [1] | IC50 (Estrogen receptor beta) | IC50 (Glycine receptor) | IC50 [2] | IC50 [3] | IC50 (Vasopressin V1a receptor) | IC50 [4]

C[C@@H]1[C@H](O)[C@@H](C)/C=C/C=C/C=C/C=C/C=C/C=C/C=C/[C@H](O[C@@H]2O[C@H](C)[C@@H](O)[C@H](N)[C@@H]2O)C[C@@H]2O[C@](O)(C[C@@H](O)C[C@@H](O)[C@H](O)CC[C@@H](O)C[C@@H](O)CC(=O)O[C@H]1C)C[C@H](O)[C@H]2C(=O)O [AMPHOTERICIN B]
Not Active: IC50 [1] | IC50 (Estrogen receptor beta) | IC50 (Glycine receptor) | IC50 [2] | IC50 [3] | IC50 (Vasopressin V1a receptor) | IC50 [4]

C[C@]12CC[C@@H](O)C[C@@H]1CC[C@@H]1[C@@H]2CC[C@]2(C)C(=O)CC[C@@H]12 [ANDROSTERONE]
Not Active: IC50 [1] | IC50 (Estrogen receptor beta) | IC50 (Glycine receptor) | IC50 [2] | IC50 [3] | IC50 (Vasopressin V1a receptor) | IC50 [4]

NCC(CC(=O)O)c1ccc(Cl)cc1 (stereo not given) [BACLOFEN]
Not Active: IC50 [1] | IC50 (Estrogen receptor beta) | IC50 (Glycine receptor) | IC50 [2] | IC50 [3] | IC50 (Vasopressin V1a receptor) | IC50 [4]

O=C(O)CO [GLYCOLIC ACID]
Not Active: IC50 [1] | IC50 (Estrogen receptor beta) | IC50 (Glycine receptor) | IC50 [2] | IC50 [3] | IC50 (Vasopressin V1a receptor) | IC50 [4]

O=C(NCCN1CCOCC1)c1ccc(Cl)cc1 [MOCLOBEMIDE]
Not Active: IC50 [1] | IC50 (Estrogen receptor beta) | IC50 (Glycine receptor) | IC50 [2] | IC50 [3] | IC50 (Vasopressin V1a receptor) | IC50 [4]

CC(C)Cc1ccc([C@H](C)C(=O)O)cc1 [DEXIBUPROFEN]
Not Active: IC50 [1] | IC50 (Estrogen receptor beta) | IC50 (Glycine receptor) | IC50 [2] | IC50 [3] | IC50 (Vasopressin V1a receptor) | IC50 [4]

CC1(COc2ccc(CC3SC(=O)NC3=O)cc2)CCCCC1 (stereo not given) [CIGLITAZONE]
Not Active: IC50 [1] | IC50 (Estrogen receptor beta) | IC50 (Glycine receptor) | IC50 [2] | IC50 [3] | IC50 (Vasopressin V1a receptor) | IC50 [4]

CC(=O)Nc1ccc2c(c1)Cc1ccccc1-2 [2-ACETYLAMINOFLUORENE]
Not Active: IC50 [1] | IC50 (Estrogen receptor beta) | IC50 (Glycine receptor) | IC50 [2] | IC50 [3] | IC50 (Vasopressin V1a receptor) | IC50 [4]

C[C@H](C(=O)O)c1ccc2oc(-c3ccc(F)cc3)nc2c1 [FLUNOXAPROFEN]
Not Active: IC50 [1] | IC50 (Estrogen receptor beta) | IC50 (Glycine receptor) | IC50 [2] | IC50 [3] | IC50 (Vasopressin V1a receptor) | IC50 [4]

CC(C)Cn1cnc2c(N)nc3ccccc3c21 [IMIQUIMOD]
Not Active: IC50 [1] | IC50 (Estrogen receptor beta) | IC50 (Glycine receptor) | IC50 [2] | IC50 [3] | IC50 (Vasopressin V1a receptor) | IC50 [4]

OC[C@H]1OC2C3[C@@H](CO)OC(O[C@H]4[C@H](O)[C@@H](O)[C@@H](O[C@H]5[C@H](O)[C@@H](O)[C@@H](O[C@H]6[C@H](O)[C@@H](O)[C@@H](O[C@H]7[C@H](O)[C@@H](O)[C@@H](O[C@H]8[C@H](O)[C@@H](O)[C@@H](O[C@H]9[C@H](O)[C@@H](O)C(OC1[C@H](O)[C@H]2O)O[C@@H]9CO)O[C@@H]8CO)O[C@@H]7CO)O[C@@H]6CO)O[C@@H]5CO)O[C@@H]4CO)[C@H](O)[C@H]3O
Not Active: IC50 [1] | IC50 (Estrogen receptor beta) | IC50 (Glycine receptor) | IC50 [2] | IC50 [3] | IC50 (Vasopressin V1a receptor) | IC50 [4]

CCN1CCN(c2cc3c(cc2F)c(=O)c(C(=O)O)cn3C2CC2)CC1 [ENROFLOXACIN]
Not Active: IC50 [1] | IC50 (Estrogen receptor beta) | IC50 (Glycine receptor) | IC50 [2] | IC50 [3] | IC50 (Vasopressin V1a receptor) | IC50 [4]

POVIDONE
Not Active: IC50 [1] | Ki [1] | IC50 (Estrogen receptor beta) | Ki (Estrogen receptor beta) | IC50 (Glycine receptor) | Ki (Glycine receptor) | IC50 [2] | Ki [2] | IC50 [3] | Ki [3] | IC50 (Vasopressin V1a receptor) | Ki (Vasopressin V1a receptor) | IC50 [4] | Ki [4]

C#C[C@]1(O)CC[C@H]2[C@@H]3CCC4=CC(=O)CC[C@@H]4[C@H]3CC[C@@]21C [NORETHINDRONE]
Not Active: IC50 [1] | IC50 (Estrogen receptor beta) | IC50 (Glycine receptor) | IC50 [2] | IC50 [3] | IC50 (Vasopressin V1a receptor) | IC50 [4]
